Results on nine compounds are retold here after patent US9650365B2 (UNIVERSITY OF CONNECTICUT, priority 2014, dated 2017).

Assay [1] deals with Hh signaling (Gli1 mRNA) in ASZ cells. The assay is described as follows: Down-regulation of endogenous Gli1 mRNA in ASZ cells. The assay is classed as cell-based, murine. The protocol: (§1) General Information. Protocols for general cell culture, qPCR and Hh inhibition in C3H10T1/2 and ASZ cells are as previously described.^28 Protocols for the initiation and growth of Math1-Cre-ER; Ptc^fl/fl medulloblastoma tumors, isolation and in vitro culture of MERP MB cells, as wells as the anti-proliferation and qPCR studies performed in these cells were as previously described.^a Sonic Hedgehog (C25II) recombinant mouse protein was purchased from Life Technologies. aData was analyzed using GraphPad Prism 5 and reported values represent mean±SEM for at least two separate experiments performed in triplicate.
(§2) In this well-studied model system for evaluating small molecule inhibition of Hh signaling, addition of an exogenous Hh agonist (recombinant Hh ligand or small molecule) results in a characteristic increase in Gli1 mRNA expression. Concomitant incubation with a pathway inhibitor reduces Gli1 expression. Analogues that reduced Gli1 mRNA levels below 20% in this assay were subsequently evaluated for their ability to reduce Gli1 mRNA expression levels in a concentration-dependent fashion in these cells and the Hh-dependent murine BCC cell line ASZ. In addition, several compounds were evaluated for their anti-proliferative effects in primary Hh-dependent medulloblastoma cells isolated from conditional patched knockout (Math1-Cre-ER; Ptc^fl/fl, MERP) mice. […] Finally, each of these analogues was evaluated for its ability to inhibit proliferation in human umbilical vein […] cells (HUVECs). In vivo angiogenesis is dependent on endothelial cell proliferation; therefore, the inhibition of HUVEC proliferation is commonly utilized as an early stage in vitro model of anti-angiogenic activity.

Another assay relates to HUVEC. The assay is described as follows: HUVEC proliferation (MTS). The note with it: 72 h. The assay is classed as cell-based, human. An excerpt: (§3) In vivo angiogenesis is dependent on endothelial cell proliferation; therefore, the inhibition of HUVEC proliferation is commonly utilized as an early stage in vitro model of anti-angiogenic activity. […] Under normal conditions, HUVECs plated and grown on Matrigel migrate towards each other, align, and form tubes that resemble in vivo capillary beds. This assay is generally considered a more robust model of angiogenesis as it requires several aspects of proper vessel formation, including adhesion, migration, and tube formation.
HUVEC Cell Viability and Proliferation. HUVEC cell viability and proliferation will be assessed by measuring cellular metabolic activity using MTT (viability) or MTS (proliferation) according to the manufacturer's instructions. HUVECs (3000 cells/well) are seeded in a 96-well plate and allowed to attach overnight. […] For viability, the final value is a corrected optical density (570 nm-690 nm). All viability and GI50 values are from a minimum of three separate experiments performed in triplicate.
HUVEC Cell Viability and Proliferation. HUVEC cell proliferation was assessed by measuring cellular metabolic activity using standard MTS/PMS protocols according to manufacturer's instructions. Briefly, HUVECs (3,000 cells/well) were seeded in a 96-well plate and allowed to attach overnight. Cells were treated with varying concentrations of drug as indicated and proliferation was assessed after 72 h with MTS.

In assay [2] the test system is MERP MB cells (Math1-Cre-ER; Ptc fl/fl medulloblastoma). The assay is described as follows: Anti-proliferation in primary MERP MB cells. The assay is classed as cell-based, mice. The protocol: as §1
as §2, with “Analogues that reduced Gli1 mRNA levels below 20% in this assay were subsequently evaluated for their ability to reduce Gli1 mRNA expression levels in a concentration-dependent fashion in these cells and the Hh-dependent murine BCC cell line ASZ.” left out

Assay [3] deals with Hh signaling (Gli1 mRNA) in C3H10T1/2 cells. The assay is described as follows: Down-regulation of endogenous Gli1 mRNA in Hh-dependent C3H10T1/2 cells. The note with it: for mrna remaining at 1 µM: read-out: % Gli expression (1 μM). The format is cell-based, mouse. The protocol:
To determine whether the triazole functionality was required for inhibition of Hh signaling, the ability of Analogue 1 to down-regulate the well-characterized Hh pathway target gene Gli1 in the Hh-dependent C3H10T1/2 cell line was determined. In this cellular model, activation of the pathway with exogenous recombinant Hh ligand results in a characteristic up-regulation of Gli1 mRNA, while concomitant administration of a pathway inhibitor reduces Gli1 expression.
as §1, §2

In the next assay the test system is tube formation in HUVECs. The assay is described as follows: HUVEC tube formation on Matrigel. The note with it: 10 μM. The assay is classed as cell-based, human.
Excerpt: as §3
Tube Formation Assay. Matrigel (BD Biosciences) is diluted with DMEM to 3 mg/ml and used to coat the wells of a 24-well tissue culture dish. Plates are incubated at room temperature for 30 min until the matrigel solidifies. HUVECs are suspended in M199 media with 1% FBS and penicillin/streptomycin and 40,000 cells are added to each well. Plates are incubated at 37° C. for 1 h to allow HUVECs to attach to the matrigel. […] Phase contrast images of each well (3/well) are taken on an inverted microscope and quantified using Image J software (NIH).
Tube Formation Assay. Matrigel (BD Biosciences) was diluted 1:1 with DMEM (matrigel protein concentration no less than 3 mg/ml) and used to coat the wells of a 24-well tissue culture dish (280 uL per well). Plates were incubated at 37° C. for no more than 1 h until the matrigel solidified. HUVECs were suspended in M199 media with 1% FBS and penicillin/streptomycin and 50,000 cells were added to each well. Plates were incubated at 37° C. for 20-30 min to allow HUVECs to attach to the matrigel. Cells were treated with control (DMSO), known angiogenic inhibitor suramin (10 uM), or varying doses (10, 1, 0.1 μM) of drug and incubated for 16 h. Phase contrast images were taken from multiple locations in each well (8/well) on an inverted microscope and tube formation parameters quantified using Image J software (NIH).

Where [4] appears, read: 24 hr incubation, read-out: IC50 (μM) C3H10T1/2.
Where [5] appears, read: Homo sapiens, HUVEC, read-out: GI50 (μM) HUVEC.
[6] abbreviates: Mus musculus, 48 hr incubation, read-out: IC50 (μM) ASZ.
[7] abbreviates: Mus musculus, C3H 10T1/2, 24 hr incubation, read-out: IC50 (μM) C3H10T1/2.
The mark [8] stands for this setting: DMSO set as 100% tube formation.
Where [9] appears, read: Mus musculus, read-out: IC50 down-regulation of Gli1 in ASZ cells.
Setting [10] is: Mus musculus, C3H 10T1/2, read-out: inactive in the C3H10T1/2 MEFs at concentrations up to.

Read-outs that look alike come from different tables or passages of the source.

Take `Nc1ccc(N2CCN(c3ccc(OCC4COC(Cn5cncn5)(c5ccc(Cl)cc5Cl)O4)cc3)CC2)cc1` (stereo not drawn) [Compound 11a, 4-(4-(4-((2-((1H-1,2,4-triazol-1-yl)methyl)-2-(2,4-dichlorophenyl)-1,3-dioxolan-4-yl)methoxy)phenyl)piperazin-1-yl)aniline]: the IC50 is 0.12 ± 0.05 µM in assay [1] (Mus musculus, 48 h, read-out: IC50 (μM) ASZ, 48 hr incubation) and 0.16 ± 0.06 µM in assay [3] (Mus musculus, C3H 10T1/2, 24 h, read-out: IC50 (μM) C3H10T1/2, 24 hr incubation). The GI50 in the assay with HUVEC (Homo sapiens, HUVEC, read-out: GI50 (μM) HUVEC, 72 h) was 42.7 ± 4.4 µM; in assay [2] (Mus musculus, 48 h, read-out: GI50 (μM) MERP MB, 48 hr incubation), 0.9 ± 0.7 µM. In addition, the mrna remaining at 1 µM in assay [3] (Mus musculus, C3H 10T1/2, 24 h) is 6.1 ± 1.6%.
In the case of `CCC(C)n1ncn(-c2ccc(N3CCN(c4ccc(OCC5COC(Cn6cncn6)(c6ccc(Cl)cc6Cl)O5)cc4)CC3)cc2)c1=O` (stereo not drawn) [Compound 13a, 4-(4-(4-(4-((2-((1H-1,2,4-triazol-1-yl)methyl)-2-(2,4-dichlorophenyl)-1,3-dioxolan-4-yl)methoxy)phenyl)piperazin-1-yl)phenyl)-2-(sec-butyl)-2,4-dihydro-3H-1,2,4-triazol-3-one], the IC50 in assay [1] (48 hr incubation, read-out: IC50 (μM) ASZ) worked out at 0.071 ± 0.02 µM; in assay [3] (setting [4]), 0.85 ± 0.1 µM. Further, the GI50 with HUVEC (read-out: GI50 (μM) HUVEC) was 3.69 ± 1.1 µM; in assay [2] (48 hr incubation, read-out: GI50 (μM) MERP MB) it was 2.9 ± 1.9 µM.
Take `CCC(C)n1ncn(-c2ccc(N3CCN(c4ccc(OCC5COC(Cn6cncn6)(c6ccc(Cl)cc6Cl)O5)cc4)CC3)cc2)c1=O` (stereo not drawn) [Compound 12a, 4-(4-(4-(4-((2-((1H-1,2,4-triazol-1-yl)methyl)-2-(2,4-dichlorophenyl)-1,3-dioxolan-4-yl)methoxy)phenyl)piperazin-1-yl)phenyl)-2-(sec-butyl)-2,4-dihydro-3H-1,2,4-triazol-3-one]: the IC50 in assay [1] (Mus musculus, 48 h, 48 hr incubation, read-out: IC50 (μM) ASZ) amounted to 0.077 ± 0.01 µM; in assay [3] (setting [4]), 0.091 ± 0.02 µM. Also, the GI50 came out at 3.32 ± 0.55 µM in the assay with HUVEC (setting [5]) and 2 ± 1.3 µM in assay [2] (Mus musculus, 48 h, 48 hr incubation, read-out: GI50 (μM) MERP MB).
As to `CC[C@@H](C)n1ncn(-c2ccc(N3CCN(c4ccc(OC[C@H]5CO[C@](C)(c6ccc(Cl)cc6Cl)O5)cc4)CC3)cc2)c1=O` [Compound 18a, 2-((R)-sec-butyl)-4-(4-(4-(4-(((2S,4S)-2-(2,4-dichlorophenyl)-2-methyl-1,3-dioxolan-4-yl)methoxy)phenyl)piperazin-1-yl)phenyl)-2,4-dihydro-3H-1,2,4-triazol-3-one], the “inhibition of tube formation (overall tube length and total tube junctions)” value in the assay with tube formation in HUVECs (16 h) was “essentially inactive”. The IC50 in assay [1] (setting [6]) was determined as 0.13 ± 0.04 µM; in assay [3] (setting [7]) it was 0.54 ± 0.24 µM. Further, the GI50 in the assay with HUVEC (setting [5]) is 12.1 ± 4.7 µM.
In the case of `CCC(C)n1ncn(-c2ccc(N3CCN(c4ccc(OCC5COC(Cn6cncn6)(c6ccccc6)O5)cc4)CC3)cc2)c1=O` (stereo not drawn) [Compound 3a, 4-(4-(4-(4-((2-((1H-1,2,4-triazol-1-yl)methyl)-2-phenyl-1,3-dioxolan-4-yl)methoxy)phenyl)piperazin-1-yl)phenyl)-1-(sec-butyl)-1H-1,2,4-triazol-5(4H)-one], the IC50 in assay [1] (setting [6]) was found to be 0.45 ± 0.06 µM; in assay [3] (setting [7]) it was 0.42 ± 0.2 µM. Also, the GI50 with HUVEC (setting [5]) came out at 8.3 ± 0.7 µM. The mrna remaining at 1 µM in assay [3] (Mus musculus, C3H 10T1/2, 1 μM, 24 hr incubation, relative to recombinant Hh ligand control (100%)) is 13.1 ± 1.2%.
With `Cc1ccc(C(=O)Nc2ccc(S(=O)(=O)O)c3cc(S(=O)(=O)O)cc(S(=O)(=O)O)c23)cc1NC(=O)c1cccc(NC(=O)Nc2cccc(C(=O)Nc3cc(C(=O)Nc4ccc(S(=O)(=O)O)c5cc(S(=O)(=O)O)cc(S(=O)(=O)O)c45)ccc3C)c2)c1` [Suramin, reference compound], in the assay on tube formation in HUVECs (setting [8]), the “ability to inhibit tube junctions” value is on record as 57.6±6.1% and the “ability to inhibit tube length” value was 51.9±7.8%.
As for `CC[C@@H](C)n1ncn(-c2ccc(N3CCN(c4ccc(OC[C@H]5CO[C@@](C)(c6ccc(Cl)cc6Cl)O5)cc4)CC3)cc2)c1=O` [Compound 19a, 2-((R)-sec-butyl)-4-(4-(4-(4-(((2R,4S)-2-(2,4-dichlorophenyl)-2-methyl-1,3-dioxolan-4-yl)methoxy)phenyl)piperazin-1-yl)phenyl)-2,4-dihydro-3H-1,2,4-triazol-3-one], the IC50 in assay [1] (setting [6]) amounted to 2.8 ± 0.9 µM; in assay [3] (setting [7]) it was 6.6 ± 0.3 µM. In addition, the GI50 in the assay with HUVEC (setting [5]) turned out to be 65 ± 11.5 µM.
Regarding `CCCn1ncn(-c2ccc(N3CCN(c4ccc(OC[C@H]5CO[C@@](C)(c6ccc(Cl)cc6Cl)O5)cc4)CC3)cc2)c1=O` [Compound 25a, 4-(4-(4-(4-(((2R,4S)-2-(2,4-dichlorophenyl)-2-methyl-1,3-dioxolan-4-yl)methoxy)phenyl)piperazin-1-yl)phenyl)-2-propyl-2,4-dihydro-3H-1,2,4-triazol-3-one], the IC50 in assay [1] (setting [6]) was 0.54 ± 0.06 µM; in assay [1] (setting [9]) it was 0.54 µM; in assay [3] (setting [7]), over 10 µM; in assay [3] (setting [10]), over 10 µM. Moreover, the GI50 in the assay with HUVEC (setting [5]) was 24.9 ± 2.2 µM.
With `CC[C@H](C)n1ncn(-c2ccc(N3CCN(c4ccc(OC[C@H]5CO[C@@](C)(c6ccc(Cl)cc6Cl)O5)cc4)CC3)cc2)c1=O` [Compound 15a, 2-((S)-sec-butyl)-4-(4-(4-(4-(((2R,4S)-2-(2,4-dichlorophenyl)-2-methyl-1,3-dioxolan-4-yl)methoxy)phenyl)piperazin-1-yl)phenyl)-2,4-dihydro-3H-1,2,4-triazol-3-one], the IC50 was 0.55 ± 0.07 µM in assay [1] (setting [6]), 0.55 µM in assay [1] (setting [9]), over 10 µM in assay [3] (setting [7]) and over 10 µM in assay [3] (setting [10]). Also, the GI50 with HUVEC (setting [5]) was 78.3 ± 17.3 µM.
